Data: ChEMBL document CHEMBL1145543, “X-ray snapshot of the mechanism of inactivation of human neutrophil elastase by 1,2,5-thiadiazolidin-3-one 1,1-dioxide derivatives” (J Med Chem, 2008)

Tests used:
[1] = molecular target: T1, Neutrophil elastase (Homo sapiens) (UniProt P08246); assay: Ratio of Kinact to KI for human neutrophil elastase
T1 sequence (whole entry): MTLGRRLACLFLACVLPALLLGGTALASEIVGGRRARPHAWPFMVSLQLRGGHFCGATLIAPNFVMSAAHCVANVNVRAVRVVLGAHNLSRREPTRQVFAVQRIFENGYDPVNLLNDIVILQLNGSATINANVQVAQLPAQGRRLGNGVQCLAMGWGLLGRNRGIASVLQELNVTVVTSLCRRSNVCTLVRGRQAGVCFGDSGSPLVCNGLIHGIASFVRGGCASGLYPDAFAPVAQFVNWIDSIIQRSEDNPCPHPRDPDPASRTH

[2] = organism: Bos taurus; assay: Inhibition of bovine trypsin; conditions: TDE = time-dependent effect
[3] = molecular target: T2, Neutrophil elastase (Homo sapiens, UniProt P08246); assay: Inhibition human neutrophil elastase
T2 sequence (P08246 whole entry): T1 sequence (whole entry)

CCCC1C(=O)N(COC(=O)c2c(Cl)cccc2Cl)S(=O)(=O)N1C (stereo not drawn) was tested, and the Ratio [1] was 8.9 10^6/M/s, the Activity [2] was “tde” and the Ki [3] was 5.47 nM.
